Data from PubChem BioAssay AID1259407 (Chemical Carcinogenesis Research Information System (CCRIS), 2018).
Calls of active or inactive are those of the source. The rule behind the calls is not given here.

Test system: CCRIS mutagenicity, Ames/micronucleus/aberration tests
Assay: CCRIS mutagenicity studies
[1] = Test System: AMES SALMONELLA TYPHIMURIUM, Strain/Indicator: TA100, Metabolic Activation: NONE, Method: PREINCUBATION

O=C/C=C/c1ccccc1
mutagenic call (End Point: IN VITRO CHROMOSOMAL ABERRATIONS, Test System: CHINESE HAMSTER OVARY CELLS, Metabolic Activation: NONE): inactive; negative
mutagenic call (End Point: IN VITRO CHROMOSOMAL ABERRATIONS, Test System: CHINESE HAMSTER OVARY CELLS, Metabolic Activation: RAT, LIVER, S-9, AROCLOR 1254): inactive; negative
mutagenic call (End Point: IN VIVO MICRONUCLEUS, Test System: BONE MARROW POLYCHROMATIC ERYTHROCYTES, Species: MOUSE, Strain/Sex: DDY/MALE, Route: IP): inactive; negative
mutagenic call (Test System: AMES SALMONELLA TYPHIMURIUM, Strain/Indicator: TA97, Metabolic Activation: NONE, Method: PREINCUBATION (120 MIN)): inactive; negative
mutagenic call (Test System: AMES SALMONELLA TYPHIMURIUM, Strain/Indicator: TA97, Metabolic Activation: S-9, Method: PREINCUBATION (120 MIN)): inactive; negative
mutagenic call (Test System: AMES SALMONELLA TYPHIMURIUM, Strain/Indicator: TA98, Metabolic Activation: HAMSTER, LIVER, S-9, AROCLOR 1254 (2.5-20%), Method: PREINCUBATION): inactive; negative
mutagenic call (Test System: AMES SALMONELLA TYPHIMURIUM, Strain/Indicator: TA98, Metabolic Activation: HAMSTER, LIVER, S-9, AROCLOR 1254, Method: STANDARD PLATE): inactive; negative
mutagenic call (Test System: AMES SALMONELLA TYPHIMURIUM, Strain/Indicator: TA98, Metabolic Activation: NONE, Method: PREINCUBATION (120 MIN)): inactive; negative
mutagenic call (Test System: AMES SALMONELLA TYPHIMURIUM, Strain/Indicator: TA98, Metabolic Activation: NONE, Method: STANDARD PLATE): inactive; negative
mutagenic call (Test System: AMES SALMONELLA TYPHIMURIUM, Strain/Indicator: TA98, Metabolic Activation: RAT, LIVER, S-9, AROCLOR 1254, Method: STANDARD PLATE): inactive; negative
mutagenic call (Test System: AMES SALMONELLA TYPHIMURIUM, Strain/Indicator: TA98, Metabolic Activation: S-9, Method: PREINCUBATION (120 MIN)): inactive; negative
mutagenic call (Test System: AMES SALMONELLA TYPHIMURIUM, Strain/Indicator: TA100, Metabolic Activation: HAMSTER, LIVER, S-9, AROCLOR 1254 (2.5-20%), Method: PREINCUBATION): inactive; negative
mutagenic call (Test System: AMES SALMONELLA TYPHIMURIUM, Strain/Indicator: TA100, Metabolic Activation: HAMSTER, LIVER, S-9, AROCLOR 1254, Method: STANDARD PLATE): inactive; negative
mutagenic call [1]: inactive; negative
mutagenic call (Test System: AMES SALMONELLA TYPHIMURIUM, Strain/Indicator: TA100, Metabolic Activation: NONE, Method: PREINCUBATION (120 MIN)): inactive; negative
mutagenic call (Test System: AMES SALMONELLA TYPHIMURIUM, Strain/Indicator: TA100, Metabolic Activation: NONE, Method: STANDARD PLATE): inactive; negative
mutagenic call (Test System: AMES SALMONELLA TYPHIMURIUM, Strain/Indicator: TA100, Metabolic Activation: RAT LIVER S-9, AROCLOR 1254, Method: PREINCUBATION): inactive; negative
mutagenic call (Test System: AMES SALMONELLA TYPHIMURIUM, Strain/Indicator: TA100, Metabolic Activation: RAT, LIVER, S-9, AROCLOR 1254, Method: PREINCUBATION): inactive; negative
mutagenic call (Test System: AMES SALMONELLA TYPHIMURIUM, Strain/Indicator: TA100, Metabolic Activation: RAT, LIVER, S-9, AROCLOR 1254, Method: STANDARD PLATE): inactive; negative
mutagenic call (Test System: AMES SALMONELLA TYPHIMURIUM, Strain/Indicator: TA100, Metabolic Activation: S-9, Method: PREINCUBATION (120 MIN)): inactive; negative
mutagenic call (Test System: AMES SALMONELLA TYPHIMURIUM, Strain/Indicator: TA102, Metabolic Activation: HAMSTER, LIVER, S-9, AROCLOR 1254, Method: PREINCUBATION): inactive; negative
mutagenic call (Test System: AMES SALMONELLA TYPHIMURIUM, Strain/Indicator: TA102, Metabolic Activation: MOUSE LIVER S-9, AROCLOR 1254, Method: PREINCUBATION): inactive; negative
mutagenic call (Test System: AMES SALMONELLA TYPHIMURIUM, Strain/Indicator: TA102, Metabolic Activation: NONE, Method: PREINCUBATION): inactive; negative
mutagenic call (Test System: AMES SALMONELLA TYPHIMURIUM, Strain/Indicator: TA102, Metabolic Activation: RAT LIVER S-9, AROCLOR 1254, Method: PREINCUBATION): inactive; negative
mutagenic call (Test System: AMES SALMONELLA TYPHIMURIUM, Strain/Indicator: TA102, Metabolic Activation: RAT, LIVER, S-9, AROCLOR 1254, Method: PREINCUBATION): inactive; negative
mutagenic call (Test System: AMES SALMONELLA TYPHIMURIUM, Strain/Indicator: TA104, Metabolic Activation: MOUSE LIVER S-9, AROCLOR 1254, Method: PREINCUBATION): inactive; negative
mutagenic call (Test System: AMES SALMONELLA TYPHIMURIUM, Strain/Indicator: TA104, Metabolic Activation: NONE, Method: PREINCUBATION): inactive; negative
mutagenic call (Test System: AMES SALMONELLA TYPHIMURIUM, Strain/Indicator: TA104, Metabolic Activation: RAT LIVER S-9, AROCLOR 1254, Method: PREINCUBATION): inactive; negative
mutagenic call (Test System: AMES SALMONELLA TYPHIMURIUM, Strain/Indicator: TA1535, Metabolic Activation: HAMSTER, LIVER, S-9, AROCLOR 1254, Method: STANDARD PLATE): inactive; negative
mutagenic call (Test System: AMES SALMONELLA TYPHIMURIUM, Strain/Indicator: TA1535, Metabolic Activation: NONE, Method: STANDARD PLATE): inactive; negative
mutagenic call (Test System: AMES SALMONELLA TYPHIMURIUM, Strain/Indicator: TA1535, Metabolic Activation: RAT, LIVER, S-9, AROCLOR 1254, Method: STANDARD PLATE): inactive; negative
mutagenic call (Test System: AMES SALMONELLA TYPHIMURIUM, Strain/Indicator: TA1537, Metabolic Activation: HAMSTER, LIVER, S-9, AROCLOR 1254, Method: STANDARD PLATE): inactive; negative
mutagenic call (Test System: AMES SALMONELLA TYPHIMURIUM, Strain/Indicator: TA1537, Metabolic Activation: NONE, Method: PREINCUBATION): inactive; negative
mutagenic call (Test System: AMES SALMONELLA TYPHIMURIUM, Strain/Indicator: TA1537, Metabolic Activation: NONE, Method: STANDARD PLATE): inactive; negative
mutagenic call (Test System: AMES SALMONELLA TYPHIMURIUM, Strain/Indicator: TA1537, Metabolic Activation: RAT, LIVER, S-9, AROCLOR 1254, Method: STANDARD PLATE): inactive; negative
mutagenic call (Test System: AMES SALMONELLA TYPHIMURIUM, Strain/Indicator: TA1538, Metabolic Activation: HAMSTER, LIVER, S-9, AROCLOR 1254, Method: STANDARD PLATE): inactive; negative
mutagenic call (Test System: AMES SALMONELLA TYPHIMURIUM, Strain/Indicator: TA1538, Metabolic Activation: NONE, Method: STANDARD PLATE): inactive; negative
mutagenic call (Test System: AMES SALMONELLA TYPHIMURIUM, Strain/Indicator: TA1538, Metabolic Activation: RAT, LIVER, S-9, AROCLOR 1254, Method: STANDARD PLATE): inactive; negative
mutagenic call (Test System: MOUSE LYMPHOMA, Strain/Indicator: L5178Y (TK+/TK-), Metabolic Activation: NONE, Method: SUSPENSION/PLATE): active; positive. reevaluation of results: positive
mutagenic call (Test System: MOUSE LYMPHOMA, Strain/Indicator: L5178Y (TK+/TK-), Metabolic Activation: RAT, LIVER, S-9, AROCLOR 1254, Method: SUSPENSION/PLATE): active; positive. reevaluation of results: positive

CC(=O)ON(C(C)=O)c1ccc(/C=C\c2ccccc2)cc1
mutagenic call (Test System: UDS HUMAN CELLS, Strain/Indicator: THY INCORP (NON-S-PHASE), Metabolic Activation: NONE, Method: LIQUID SCINTILLATION COUNTING): active; positive
mutagenic call (Test System: UDS HUMAN FIBROBLASTS, Strain/Indicator: THY INCORP (NON-S-PHASE), Metabolic Activation: NONE, Method: AUTORADIOGRAPHY): active; positive

Nc1nc(=O)n([C@@H]2O[C@H](CO)[C@@H](O)[C@H]2O)cc1O
mutagenic call [1]: inactive; negative
